Laboratory results published in publication PMC9856672, “SGC-CAMKK2-1: A Chemical Probe for CAMKK2” (Cells, 2023).

Tests used:
LATS2 = target: T1, LATS2 (Homo sapiens, UniProt Q9NRM7); test: KINOMEscan 1 μM, LATS2; type: binding; details: 1000 nM; Entrez LATS2; read-out: Percent Control
T1 construct: purchased Eurofins DiscoverX KINOMEscan
Source text: (§1) Supplement cells-12-00287-s001.zip/File S2. KinomeScan data for the CAMKK2 probe and negative control.xlsx, sheet "SGC-CAMKK2-1" | column: Percent Control

PIM1 = target: T2, PIM1 (Homo sapiens, UniProt P11309); test: KINOMEscan 1 μM, PIM1; type: binding; details: 1000 nM; Entrez PIM1; read-out: Percent Control
T2 construct: purchased Eurofins DiscoverX KINOMEscan
Source text: as §1

MEK5 = target: T3, MEK5 (Homo sapiens, UniProt Q13163); test: KINOMEscan 1 μM, MEK5; type: binding; details: 1000 nM; Entrez MAP2K5; read-out: Percent Control
T3 construct: purchased Eurofins DiscoverX KINOMEscan
Source text: as §1

CDK9 = target: T4, CDK9 (Homo sapiens, UniProt P50750); test: KINOMEscan 1 μM, CDK9; type: binding; details: 1000 nM; Entrez CDK9; read-out: Percent Control
T4 construct: purchased Eurofins DiscoverX KINOMEscan
Source text: as §1

STK33 = target: T5, STK33 (Homo sapiens, UniProt Q9BYT3); test: KINOMEscan 1 μM, STK33; type: binding; details: 1000 nM; Entrez STK33; read-out: Percent Control
T5 construct: purchased Eurofins DiscoverX KINOMEscan
Source text: as §1

CSK [1] = target: T6, CSK (Homo sapiens, UniProt P41240); test: KINOMEscan 1 μM, CSK; type: binding; details: 1000 nM; Entrez CSK; read-out: Percent Control
T6 construct: purchased Eurofins DiscoverX KINOMEscan
Source text: as §1

[2] = target: T7, ABL1(H396P)-nonphosphorylated (Homo sapiens, UniProt P00519, H396P); test: KINOMEscan 1 μM, ABL1(H396P)-nonphosphorylated; type: binding; details: 1000 nM; Entrez ABL1; read-out: Percent Control
T7 construct: purchased Eurofins DiscoverX KINOMEscan
Source text: as §1

CDK4-cyclinD1 = target: T8, CDK4-cyclinD1 (Homo sapiens, UniProt P11802); test: KINOMEscan 1 μM, CDK4-cyclinD1; type: binding; details: 1000 nM; Entrez CDK4; read-out: Percent Control
T8 construct: purchased Eurofins DiscoverX KINOMEscan
Source text: as §1

IGF1R = target: T9, IGF1R (Homo sapiens, UniProt P08069); test: KINOMEscan 1 μM, IGF1R; type: binding; details: 1000 nM; Entrez IGF1R; read-out: Percent Control
T9 construct: purchased Eurofins DiscoverX KINOMEscan
Source text: as §1

MARK4 = target: T10, MARK4 (Homo sapiens, UniProt Q96L34); test: KINOMEscan 1 μM, MARK4; type: binding; details: 1000 nM; Entrez MARK4; read-out: Percent Control
T10 construct: purchased Eurofins DiscoverX KINOMEscan
Source text: as §1

MEK6 = target: T11, MEK6 (Homo sapiens, UniProt P52564); test: KINOMEscan 1 μM, MEK6; type: binding; details: 1000 nM; Entrez MAP2K6; read-out: Percent Control
T11 construct: purchased Eurofins DiscoverX KINOMEscan
Source text: as §1

NEK5 = target: T12, NEK5 (Homo sapiens, UniProt Q6P3R8); test: KINOMEscan 1 μM, NEK5; type: binding; details: 1000 nM; Entrez NEK5; read-out: Percent Control
T12 construct: purchased Eurofins DiscoverX KINOMEscan
Source text: as §1

PHKG2 = target: T13, PHKG2 (Homo sapiens, UniProt P15735); test: DiscoverX KINOMEscan binding assay at 1 μM, PHKG2; details: Compound Concentration 1000 nM, read-out: Percent Control
T13 construct: purchased Eurofins DiscoverX KINOMEscan
Source text: as §1

PKAC-beta = target: T14, PKAC-beta (Homo sapiens, UniProt P22694); test: DiscoverX KINOMEscan binding assay at 1 μM, PKAC-beta; details: PKAC-beta (PRKACB); Compound Concentration 1000 nM; read-out: Percent Control
T14 construct: purchased Eurofins DiscoverX KINOMEscan
Source text: as §1

RET(M918T) = target: T15, RET(M918T) (Homo sapiens, UniProt P07949, M918T); test: DiscoverX KINOMEscan binding assay at 1 μM, RET(M918T); details: Compound Concentration 1000 nM, read-out: Percent Control
T15 construct: purchased Eurofins DiscoverX KINOMEscan
Source text: as §1

PIK3CA(C420R) = target: T16, PIK3CA(C420R) (Homo sapiens, UniProt P42336, C420R); test: KINOMEscan at 1 μM, PIK3CA(C420R); type: binding; details: 1000 nM, read-out: Percent Control
T16 construct: purchased Eurofins DiscoverX KINOMEscan
Source text: (§2) Supplement cells-12-00287-s001.zip/File S2. KinomeScan data for the CAMKK2 probe and negative control.xlsx, sheet "SGC-CAMKK2-1N" | column: Percent Control

FGR = target: T17, FGR (Homo sapiens, UniProt P09769); test: KINOMEscan at 1 μM, FGR; type: binding; details: 1000 nM, read-out: Percent Control
T17 construct: purchased Eurofins DiscoverX KINOMEscan
Source text: as §2

TTK = target: T18, TTK (Homo sapiens, UniProt P33981); test: KINOMEscan at 1 μM, TTK; type: binding; details: 1000 nM, read-out: Percent Control
T18 construct: purchased Eurofins DiscoverX KINOMEscan
Source text: as §2

CSK [3] = target: T6, CSK; test: KINOMEscan at 1 μM, CSK; type: binding; details: 1000 nM, read-out: Percent Control
Source text: as §2

ULK1 = target: T19, ULK1 (Homo sapiens, UniProt O75385); test: KINOMEscan at 1 μM, ULK1; type: binding; details: 1000 nM, read-out: Percent Control
T19 construct: purchased Eurofins DiscoverX KINOMEscan
Source text: as §2

PFPK5(P.falciparum) = target: T20, PFPK5(P.falciparum) (Plasmodium falciparum, UniProt P61075); test: KINOMEscan at 1 μM, PFPK5(P.falciparum); type: binding; details: 1000 nM, read-out: Percent Control
T20 construct: purchased Eurofins DiscoverX KINOMEscan
Source text: as §2

SgK110 = target: T21, SgK110 (Homo sapiens, UniProt P0C264); test: KINOMEscan at 1 μM, SgK110; type: binding; details: 1000 nM, read-out: Percent Control
T21 construct: purchased Eurofins DiscoverX KINOMEscan
Source text: as §2

NEK3 = target: T22, NEK3 (Homo sapiens, UniProt P51956); test: KINOMEscan at 1 μM, NEK3; type: binding; details: 1000 nM, read-out: Percent Control
T22 construct: purchased Eurofins DiscoverX KINOMEscan
Source text: as §2

SRMS = target: T23, SRMS (Homo sapiens, UniProt Q9H3Y6); test: KINOMEscan at 1 μM, SRMS; type: binding; details: 1000 nM, read-out: Percent Control
T23 construct: purchased Eurofins DiscoverX KINOMEscan
Source text: as §2

PKN2 = target: T24, PKN2 (Homo sapiens, UniProt Q16513); test: KINOMEscan at 1 μM, PKN2; type: binding; details: 1000 nM, read-out: Percent Control
T24 construct: purchased Eurofins DiscoverX KINOMEscan
Source text: as §2

CSF1R-autoinhibited = target: T25, CSF1R-autoinhibited (Homo sapiens, UniProt P07333); test: KINOMEscan at 1 μM, CSF1R-autoinhibited; type: binding; details: 1000 nM, read-out: Percent Control
T25 construct: purchased Eurofins DiscoverX KINOMEscan
Source text: as §2

CSNK1E = target: T26, CSNK1E (Homo sapiens, UniProt P49674); test: KINOMEscan at 1 μM, CSNK1E; type: binding; details: 1000 nM, read-out: Percent Control
T26 construct: purchased Eurofins DiscoverX KINOMEscan
Source text: as §2

[4] = target: T27, RSK4(Kin.Dom.1-N-terminal) (Homo sapiens, UniProt Q9UK32); test: KINOMEscan at 1 μM, RSK4(Kin.Dom.1-N-terminal); type: binding; details: 1000 nM, read-out: Percent Control
T27 construct: RSK4(Kin.Dom.1-N-terminal); purchased Eurofins DiscoverX KINOMEscan
Source text: as §2

[5] = target: T28, RSK1(Kin.Dom.2-C-terminal) (Homo sapiens, UniProt Q15418); test: KINOMEscan at 1 μM, RSK1(Kin.Dom.2-C-terminal); type: binding; details: 1000 nM, read-out: Percent Control
T28 construct: RSK1(Kin.Dom.2-C-terminal); purchased Eurofins DiscoverX KINOMEscan
Source text: as §2

FLT3(D835V) = target: T29, FLT3(D835V) (Homo sapiens, UniProt P36888, D835V); test: KINOMEscan at 1 μM, FLT3(D835V); type: binding; details: 1000 nM, read-out: Percent Control
T29 construct: purchased Eurofins DiscoverX KINOMEscan
Source text: as §2

ADCK4 = target: T30, ADCK4 (Homo sapiens, UniProt Q96D53); test: KINOMEscan at 1 μM, ADCK4; type: binding; details: 1000 nM, read-out: Percent Control
T30 construct: purchased Eurofins DiscoverX KINOMEscan
Source text: as §2

MAST1 = target: T31, MAST1 (Homo sapiens, UniProt Q9Y2H9); test: KINOMEscan binding assay at 1 μM, MAST1; details: Compound Concentration 1000 nM; read-out: Percent Control
T31 construct: purchased Eurofins DiscoverX KINOMEscan
Source text: as §2

MLK2 = target: T32, MLK2 (Homo sapiens, UniProt Q02779); test: KINOMEscan binding assay at 1 μM, MLK2; details: Compound Concentration 1000 nM; read-out: Percent Control
T32 construct: purchased Eurofins DiscoverX KINOMEscan
Source text: as §2

T6 sequence (P41240 whole entry): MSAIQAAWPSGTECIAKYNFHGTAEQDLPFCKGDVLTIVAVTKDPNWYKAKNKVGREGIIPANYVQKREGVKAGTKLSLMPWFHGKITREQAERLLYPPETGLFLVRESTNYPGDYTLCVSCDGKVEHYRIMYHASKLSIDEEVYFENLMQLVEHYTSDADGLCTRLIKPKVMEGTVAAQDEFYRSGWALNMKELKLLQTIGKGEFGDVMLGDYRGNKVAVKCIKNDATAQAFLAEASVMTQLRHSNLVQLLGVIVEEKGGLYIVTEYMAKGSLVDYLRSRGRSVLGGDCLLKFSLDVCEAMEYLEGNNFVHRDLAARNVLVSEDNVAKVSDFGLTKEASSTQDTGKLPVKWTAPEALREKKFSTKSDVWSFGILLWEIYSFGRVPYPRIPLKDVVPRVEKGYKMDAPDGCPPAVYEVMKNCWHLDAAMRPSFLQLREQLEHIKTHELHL
T13 sequence (P15735 whole entry): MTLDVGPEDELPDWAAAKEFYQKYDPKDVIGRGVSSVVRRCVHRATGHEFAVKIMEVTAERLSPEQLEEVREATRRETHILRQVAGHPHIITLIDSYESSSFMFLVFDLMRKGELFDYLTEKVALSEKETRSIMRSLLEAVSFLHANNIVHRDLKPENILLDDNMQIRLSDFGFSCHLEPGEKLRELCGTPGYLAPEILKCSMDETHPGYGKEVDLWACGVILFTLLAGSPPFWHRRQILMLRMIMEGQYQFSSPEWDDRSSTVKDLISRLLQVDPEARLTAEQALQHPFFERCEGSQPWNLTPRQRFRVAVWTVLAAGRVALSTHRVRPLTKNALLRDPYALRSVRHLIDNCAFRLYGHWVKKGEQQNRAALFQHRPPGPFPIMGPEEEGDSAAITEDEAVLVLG
T10 sequence (Q96L34 whole entry): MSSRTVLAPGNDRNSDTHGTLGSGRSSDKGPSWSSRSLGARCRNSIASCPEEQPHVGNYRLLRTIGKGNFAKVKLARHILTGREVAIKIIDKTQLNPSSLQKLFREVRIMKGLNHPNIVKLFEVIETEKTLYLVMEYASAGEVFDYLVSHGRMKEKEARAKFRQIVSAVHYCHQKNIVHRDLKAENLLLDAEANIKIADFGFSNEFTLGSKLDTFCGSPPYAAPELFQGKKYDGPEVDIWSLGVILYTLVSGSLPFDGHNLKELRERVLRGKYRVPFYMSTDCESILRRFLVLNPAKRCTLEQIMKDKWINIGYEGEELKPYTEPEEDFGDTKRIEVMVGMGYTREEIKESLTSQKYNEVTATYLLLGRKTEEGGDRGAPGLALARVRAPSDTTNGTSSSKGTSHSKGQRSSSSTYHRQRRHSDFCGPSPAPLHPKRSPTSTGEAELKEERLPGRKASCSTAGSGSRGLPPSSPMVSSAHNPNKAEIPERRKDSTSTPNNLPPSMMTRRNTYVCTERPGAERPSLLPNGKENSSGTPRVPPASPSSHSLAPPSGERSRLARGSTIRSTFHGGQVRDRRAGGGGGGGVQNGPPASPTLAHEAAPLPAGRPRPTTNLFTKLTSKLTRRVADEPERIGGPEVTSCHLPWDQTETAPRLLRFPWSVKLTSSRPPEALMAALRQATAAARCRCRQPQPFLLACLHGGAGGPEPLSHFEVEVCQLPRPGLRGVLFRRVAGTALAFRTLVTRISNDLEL
T21 sequence (P0C264 whole entry): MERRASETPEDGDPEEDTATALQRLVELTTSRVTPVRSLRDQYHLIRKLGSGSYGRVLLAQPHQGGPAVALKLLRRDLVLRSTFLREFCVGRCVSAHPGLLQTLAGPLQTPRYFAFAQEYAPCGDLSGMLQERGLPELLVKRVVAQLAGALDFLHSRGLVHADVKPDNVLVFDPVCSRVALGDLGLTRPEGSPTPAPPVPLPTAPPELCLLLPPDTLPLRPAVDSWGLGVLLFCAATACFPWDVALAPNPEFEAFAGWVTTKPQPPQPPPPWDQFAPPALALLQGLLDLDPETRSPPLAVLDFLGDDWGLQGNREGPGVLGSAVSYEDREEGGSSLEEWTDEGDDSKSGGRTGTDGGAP
T28 sequence (Q15418 392-735 limits assumed): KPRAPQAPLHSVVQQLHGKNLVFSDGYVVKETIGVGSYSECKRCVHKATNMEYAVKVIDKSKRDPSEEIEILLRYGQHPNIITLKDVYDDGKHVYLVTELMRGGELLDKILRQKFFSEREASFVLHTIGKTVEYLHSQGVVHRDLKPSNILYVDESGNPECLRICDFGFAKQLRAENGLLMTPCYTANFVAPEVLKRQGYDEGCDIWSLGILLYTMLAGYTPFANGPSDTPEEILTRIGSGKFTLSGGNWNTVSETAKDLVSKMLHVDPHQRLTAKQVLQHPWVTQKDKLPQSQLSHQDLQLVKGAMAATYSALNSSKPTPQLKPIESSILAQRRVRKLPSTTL
T4 sequence (P50750 whole entry): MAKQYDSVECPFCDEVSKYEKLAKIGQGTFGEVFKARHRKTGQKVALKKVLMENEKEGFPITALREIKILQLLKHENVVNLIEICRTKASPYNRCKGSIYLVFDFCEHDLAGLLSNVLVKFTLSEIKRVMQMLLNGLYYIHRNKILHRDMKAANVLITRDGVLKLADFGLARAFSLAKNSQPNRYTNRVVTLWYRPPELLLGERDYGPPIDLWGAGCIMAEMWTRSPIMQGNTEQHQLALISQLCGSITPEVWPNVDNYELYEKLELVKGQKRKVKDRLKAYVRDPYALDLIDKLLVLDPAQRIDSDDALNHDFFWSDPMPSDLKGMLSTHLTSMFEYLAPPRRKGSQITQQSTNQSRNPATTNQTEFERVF
T25 sequence (P07333 20-972): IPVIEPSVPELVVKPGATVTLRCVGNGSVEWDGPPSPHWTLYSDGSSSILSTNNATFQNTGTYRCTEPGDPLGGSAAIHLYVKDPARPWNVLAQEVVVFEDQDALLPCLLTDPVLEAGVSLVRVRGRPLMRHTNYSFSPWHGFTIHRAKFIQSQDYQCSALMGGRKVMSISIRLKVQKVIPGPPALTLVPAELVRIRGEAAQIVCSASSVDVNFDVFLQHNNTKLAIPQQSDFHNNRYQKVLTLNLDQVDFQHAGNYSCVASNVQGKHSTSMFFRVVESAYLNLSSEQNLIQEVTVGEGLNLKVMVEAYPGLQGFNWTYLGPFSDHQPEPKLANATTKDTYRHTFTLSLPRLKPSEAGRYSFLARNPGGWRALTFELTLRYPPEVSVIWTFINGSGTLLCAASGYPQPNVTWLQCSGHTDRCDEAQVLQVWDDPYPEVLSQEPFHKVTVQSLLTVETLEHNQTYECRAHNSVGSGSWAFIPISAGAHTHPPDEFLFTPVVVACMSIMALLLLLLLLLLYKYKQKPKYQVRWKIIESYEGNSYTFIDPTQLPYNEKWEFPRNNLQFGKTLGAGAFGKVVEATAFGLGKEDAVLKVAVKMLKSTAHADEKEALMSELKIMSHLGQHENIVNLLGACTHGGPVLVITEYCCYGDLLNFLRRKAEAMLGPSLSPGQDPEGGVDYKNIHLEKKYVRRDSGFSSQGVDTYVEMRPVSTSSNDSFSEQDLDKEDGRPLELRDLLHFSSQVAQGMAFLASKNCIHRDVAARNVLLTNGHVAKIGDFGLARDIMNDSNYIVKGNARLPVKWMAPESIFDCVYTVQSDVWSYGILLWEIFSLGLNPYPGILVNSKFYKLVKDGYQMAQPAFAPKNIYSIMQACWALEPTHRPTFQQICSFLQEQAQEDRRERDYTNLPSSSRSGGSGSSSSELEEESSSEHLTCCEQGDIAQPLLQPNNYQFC
T17 sequence (P09769 whole entry): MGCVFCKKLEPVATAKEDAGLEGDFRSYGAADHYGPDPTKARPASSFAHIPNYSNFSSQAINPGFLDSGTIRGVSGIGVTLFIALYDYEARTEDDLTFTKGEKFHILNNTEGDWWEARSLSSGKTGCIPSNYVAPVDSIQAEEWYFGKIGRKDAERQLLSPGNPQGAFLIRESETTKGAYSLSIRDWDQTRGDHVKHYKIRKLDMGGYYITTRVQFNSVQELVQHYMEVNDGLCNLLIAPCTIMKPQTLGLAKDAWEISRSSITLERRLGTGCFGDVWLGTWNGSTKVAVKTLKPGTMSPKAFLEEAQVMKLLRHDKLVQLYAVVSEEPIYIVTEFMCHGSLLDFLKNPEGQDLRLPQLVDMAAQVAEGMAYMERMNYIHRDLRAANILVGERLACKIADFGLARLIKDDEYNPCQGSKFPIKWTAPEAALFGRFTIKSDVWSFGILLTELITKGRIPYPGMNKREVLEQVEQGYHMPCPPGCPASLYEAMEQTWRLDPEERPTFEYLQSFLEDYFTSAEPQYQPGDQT
T26 sequence (P49674 whole entry): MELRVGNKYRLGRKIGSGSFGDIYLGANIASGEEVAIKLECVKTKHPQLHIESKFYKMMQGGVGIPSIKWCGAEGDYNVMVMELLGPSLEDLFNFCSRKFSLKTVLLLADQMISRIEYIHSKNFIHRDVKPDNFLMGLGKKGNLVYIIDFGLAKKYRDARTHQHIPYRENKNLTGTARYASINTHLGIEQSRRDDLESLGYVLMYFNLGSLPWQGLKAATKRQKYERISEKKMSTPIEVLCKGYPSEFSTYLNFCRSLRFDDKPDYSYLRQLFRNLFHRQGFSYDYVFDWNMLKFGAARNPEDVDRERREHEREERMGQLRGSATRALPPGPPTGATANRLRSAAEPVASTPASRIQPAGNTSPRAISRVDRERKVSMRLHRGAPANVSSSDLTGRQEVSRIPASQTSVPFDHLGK
T27 sequence (Q9UK32 1-400 limits assumed): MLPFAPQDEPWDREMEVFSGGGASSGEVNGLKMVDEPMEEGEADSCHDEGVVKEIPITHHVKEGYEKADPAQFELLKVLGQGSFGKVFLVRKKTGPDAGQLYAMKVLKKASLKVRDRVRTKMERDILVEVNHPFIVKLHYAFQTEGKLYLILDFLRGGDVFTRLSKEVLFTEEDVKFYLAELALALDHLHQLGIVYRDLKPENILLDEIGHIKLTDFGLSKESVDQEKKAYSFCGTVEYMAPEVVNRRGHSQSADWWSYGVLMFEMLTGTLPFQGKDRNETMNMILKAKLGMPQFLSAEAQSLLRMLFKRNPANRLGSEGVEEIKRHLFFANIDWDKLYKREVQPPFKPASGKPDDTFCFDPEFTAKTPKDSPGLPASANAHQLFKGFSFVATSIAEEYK

## Cc1cccc(-c2cnc3occ(-c4ccc(C(=O)O)c(C5CCCC5)c4)c3c2)c1 [SGC-CAMKK2-1 (YL-36)]
LATS2
  remaining binding at 1 µM: 72%
PIM1
  remaining binding at 1 µM: 76%
MEK5
  remaining binding at 1 µM: 84%
CDK9
  remaining binding at 1 µM: 93%
STK33
  remaining binding at 1 µM: 98%
CSK [1]
  remaining binding at 1 µM: 99%
[2]
  remaining binding at 1 µM: 100%
CDK4-cyclinD1
  remaining binding at 1 µM: 100%
IGF1R
  remaining binding at 1 µM: 100%
MARK4
  remaining binding at 1 µM: 100%
MEK6
  remaining binding at 1 µM: 100%
NEK5
  remaining binding at 1 µM: 100%
PHKG2
  remaining binding at 1 µM: 100%
PKAC-beta
  remaining binding at 1 µM: 100%
RET(M918T)
  remaining binding at 1 µM: 100%

## O=C(O)c1ccc(-c2coc3ncc(-c4ccccc4)cc23)cc1Cl [SGC-CAMKK2-1N (UNC-YL-83)]
PIK3CA(C420R)
  remaining binding at 1 µM: 0%
FGR
  remaining binding at 1 µM: 54%
TTK
  remaining binding at 1 µM: 54%
CSK [3]
  remaining binding at 1 µM: 60%
ULK1
  remaining binding at 1 µM: 66%
PFPK5(P.falciparum)
  remaining binding at 1 µM: 69%
SgK110
  remaining binding at 1 µM: 69%
NEK3
  remaining binding at 1 µM: 71%
SRMS
  remaining binding at 1 µM: 79%
PKN2
  remaining binding at 1 µM: 83%
CSF1R-autoinhibited
  remaining binding at 1 µM: 89%
CSNK1E
  remaining binding at 1 µM: 92%
[4]
  remaining binding at 1 µM: 92%
[5]
  remaining binding at 1 µM: 94%
FLT3(D835V)
  remaining binding at 1 µM: 97%
ADCK4
  remaining binding at 1 µM: 100%
MAST1
  remaining binding at 1 µM: 100%
MLK2
  remaining binding at 1 µM: 100%
